According to ChEMBL document CHEMBL1275320, “Positive allosteric modulators of the α-amino-3-hydroxy-5-methyl-4-isoxazolepropionic acid (AMPA) receptor” (J Med Chem, 2010):
Values joined by “and” are separate entries in the source; they are usually repeats but may differ in a detail not shown here. Equal entries are not always repeated.

How the values were obtained:
Glutamate receptor 4 [1] = biological target: Glutamate receptor 4 (Homo sapiens, UniProt P48058); test: Inhibition of GluR4 expressed in HEK293 cells; assay type: cell-based
[2] = biological target: Glutamate receptor AMPA 3/4 (Rattus norvegicus, UniProt P19492+P19493); test: Inhibition of GluR3/4 rat in hippocampal neuron; assay type: tissue-based, Hippocampus
Glutamate receptor 1 = Glutamate receptor 1 (Homo sapiens, UniProt P42261); test: Inhibition of GluR1 expressed in HEK cells; assay type: cell-based, HEK293
[3] = Agonist activity at AMPA receptor in rat cortical neurons assessed as change in increase in AMPA current; assay type: functional
Glutamate receptor 2 [4] = biological target: T1, Glutamate receptor 2 (Homo sapiens, UniProt P42262); test: Inhibition of human recombinant GluR2
[5] = Agonist activity at AMPA receptor by FLIPR assay; assay type: functional
Glutamate receptor 2 [6] = biological target: T1, Glutamate receptor 2; test: Agonist activity at GluR2 receptor; assay type: functional
Glutamate receptor 2 [7] = biological target: T1, Glutamate receptor 2; test: Inhibition of GluR2 flop expressed in HEK cells; assay type: cell-based, HEK293
Glutamate receptor 3 = Glutamate receptor 3 (Homo sapiens, UniProt P42263); test: Inhibition of GluR3 expressed in HEK cells; assay type: cell-based, HEK293
[8] = biological target: Glutamate receptor AMPA 3/4 (Homo sapiens, UniProt P42263+P48058); test: Inhibition of GluR3/4 expressed in Xenopus oocyte
[9] = Agonist activity at rat AMPA receptor assessed as AMPA-induced calcium uptake; assay type: functional
Rattus norvegicus = organism: Rattus norvegicus; test: Agonist activity at rat AMPA receptor assessed as change in EPSC amplitude; assay type: functional
[10] = Agonist activity at AMPA receptor at 30 uM by FLIPR assay; assay type: functional
Glutamate receptor 4 [11] = biological target: Glutamate receptor 4 (Rattus norvegicus, UniProt P19493); test: Inhibition of rat recombinant GluR4 in cells
Glutamate receptor 2 [12] = biological target: T1, Glutamate receptor 2; test: Inhibition of GluR2 expressed in HEK cells at 3 uM; assay type: cell-based; settings: HEK293

Sequence of Glutamate receptor AMPA 3/4 (Rattus norvegicus, UniProt P19492+P19493) (P19492 whole entry): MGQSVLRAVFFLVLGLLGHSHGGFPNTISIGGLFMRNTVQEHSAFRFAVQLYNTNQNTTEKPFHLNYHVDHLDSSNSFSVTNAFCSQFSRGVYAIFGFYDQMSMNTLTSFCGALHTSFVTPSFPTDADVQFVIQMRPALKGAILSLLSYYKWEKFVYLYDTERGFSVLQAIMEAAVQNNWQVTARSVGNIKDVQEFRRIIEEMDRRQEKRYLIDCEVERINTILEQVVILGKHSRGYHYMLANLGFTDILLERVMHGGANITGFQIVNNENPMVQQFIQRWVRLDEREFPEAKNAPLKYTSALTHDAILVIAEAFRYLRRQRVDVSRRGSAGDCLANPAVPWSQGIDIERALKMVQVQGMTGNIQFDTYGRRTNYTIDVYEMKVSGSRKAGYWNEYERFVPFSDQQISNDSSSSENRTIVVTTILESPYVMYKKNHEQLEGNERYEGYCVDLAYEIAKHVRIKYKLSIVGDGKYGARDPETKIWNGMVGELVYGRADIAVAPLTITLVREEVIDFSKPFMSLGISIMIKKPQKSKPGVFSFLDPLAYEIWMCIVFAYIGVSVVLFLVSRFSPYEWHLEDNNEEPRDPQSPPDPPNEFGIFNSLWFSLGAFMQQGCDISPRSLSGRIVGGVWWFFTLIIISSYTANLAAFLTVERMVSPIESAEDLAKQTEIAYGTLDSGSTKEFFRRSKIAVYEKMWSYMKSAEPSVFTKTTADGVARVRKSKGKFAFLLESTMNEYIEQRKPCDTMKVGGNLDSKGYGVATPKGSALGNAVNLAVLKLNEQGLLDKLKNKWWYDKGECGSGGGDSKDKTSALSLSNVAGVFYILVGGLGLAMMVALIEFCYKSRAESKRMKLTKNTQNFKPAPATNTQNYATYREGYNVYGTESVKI
Sequence of Glutamate receptor AMPA 3/4 (Rattus norvegicus, UniProt P19492+P19493) (P19493 whole entry): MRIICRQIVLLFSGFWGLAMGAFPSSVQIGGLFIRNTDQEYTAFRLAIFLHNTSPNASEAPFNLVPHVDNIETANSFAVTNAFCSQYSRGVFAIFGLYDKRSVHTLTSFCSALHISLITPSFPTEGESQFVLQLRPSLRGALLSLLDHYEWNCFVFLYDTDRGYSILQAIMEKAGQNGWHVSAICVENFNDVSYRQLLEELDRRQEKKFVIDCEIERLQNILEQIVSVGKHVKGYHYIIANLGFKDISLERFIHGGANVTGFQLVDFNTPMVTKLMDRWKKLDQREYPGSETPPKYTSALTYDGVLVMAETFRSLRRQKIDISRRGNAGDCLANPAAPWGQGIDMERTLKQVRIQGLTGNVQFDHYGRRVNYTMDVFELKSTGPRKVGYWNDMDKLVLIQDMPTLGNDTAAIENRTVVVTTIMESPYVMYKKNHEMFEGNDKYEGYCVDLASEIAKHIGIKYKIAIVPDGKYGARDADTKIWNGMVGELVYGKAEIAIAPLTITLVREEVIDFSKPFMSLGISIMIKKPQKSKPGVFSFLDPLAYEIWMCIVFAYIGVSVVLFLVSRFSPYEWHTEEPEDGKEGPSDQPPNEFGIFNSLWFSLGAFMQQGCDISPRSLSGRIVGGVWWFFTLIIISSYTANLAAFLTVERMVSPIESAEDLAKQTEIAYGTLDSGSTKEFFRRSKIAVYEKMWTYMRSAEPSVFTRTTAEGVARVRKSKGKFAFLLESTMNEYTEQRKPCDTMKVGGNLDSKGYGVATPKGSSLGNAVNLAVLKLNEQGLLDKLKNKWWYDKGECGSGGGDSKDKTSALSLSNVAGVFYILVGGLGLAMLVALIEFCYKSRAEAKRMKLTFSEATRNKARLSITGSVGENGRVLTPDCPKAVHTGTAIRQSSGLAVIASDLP
Sequence of Glutamate receptor AMPA 3/4 (Homo sapiens, UniProt P42263+P48058) (P48058 whole entry): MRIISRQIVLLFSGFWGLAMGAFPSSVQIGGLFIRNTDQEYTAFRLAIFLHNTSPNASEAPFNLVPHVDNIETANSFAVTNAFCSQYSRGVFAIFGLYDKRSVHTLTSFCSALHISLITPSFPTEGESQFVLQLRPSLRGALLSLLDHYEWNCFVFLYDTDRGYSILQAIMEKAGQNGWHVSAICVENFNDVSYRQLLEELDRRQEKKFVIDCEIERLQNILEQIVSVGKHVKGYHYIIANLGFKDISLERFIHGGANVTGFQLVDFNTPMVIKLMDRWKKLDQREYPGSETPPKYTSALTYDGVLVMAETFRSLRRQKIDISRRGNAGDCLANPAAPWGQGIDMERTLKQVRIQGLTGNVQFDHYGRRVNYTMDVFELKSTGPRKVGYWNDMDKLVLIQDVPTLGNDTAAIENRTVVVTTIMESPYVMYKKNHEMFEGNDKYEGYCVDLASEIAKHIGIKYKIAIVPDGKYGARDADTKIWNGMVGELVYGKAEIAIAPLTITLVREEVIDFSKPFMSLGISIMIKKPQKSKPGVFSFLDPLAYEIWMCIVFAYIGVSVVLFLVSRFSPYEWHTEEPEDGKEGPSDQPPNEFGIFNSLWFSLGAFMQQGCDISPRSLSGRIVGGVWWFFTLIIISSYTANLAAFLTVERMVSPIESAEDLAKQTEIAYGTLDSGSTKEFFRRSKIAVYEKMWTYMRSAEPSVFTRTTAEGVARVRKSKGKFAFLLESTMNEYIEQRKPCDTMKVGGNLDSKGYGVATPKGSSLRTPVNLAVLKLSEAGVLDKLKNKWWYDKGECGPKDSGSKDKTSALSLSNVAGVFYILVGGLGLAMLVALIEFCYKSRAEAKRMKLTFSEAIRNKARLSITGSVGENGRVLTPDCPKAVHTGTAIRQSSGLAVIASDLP
Sequence of Glutamate receptor AMPA 3/4 (Homo sapiens, UniProt P42263+P48058) (P42263 whole entry): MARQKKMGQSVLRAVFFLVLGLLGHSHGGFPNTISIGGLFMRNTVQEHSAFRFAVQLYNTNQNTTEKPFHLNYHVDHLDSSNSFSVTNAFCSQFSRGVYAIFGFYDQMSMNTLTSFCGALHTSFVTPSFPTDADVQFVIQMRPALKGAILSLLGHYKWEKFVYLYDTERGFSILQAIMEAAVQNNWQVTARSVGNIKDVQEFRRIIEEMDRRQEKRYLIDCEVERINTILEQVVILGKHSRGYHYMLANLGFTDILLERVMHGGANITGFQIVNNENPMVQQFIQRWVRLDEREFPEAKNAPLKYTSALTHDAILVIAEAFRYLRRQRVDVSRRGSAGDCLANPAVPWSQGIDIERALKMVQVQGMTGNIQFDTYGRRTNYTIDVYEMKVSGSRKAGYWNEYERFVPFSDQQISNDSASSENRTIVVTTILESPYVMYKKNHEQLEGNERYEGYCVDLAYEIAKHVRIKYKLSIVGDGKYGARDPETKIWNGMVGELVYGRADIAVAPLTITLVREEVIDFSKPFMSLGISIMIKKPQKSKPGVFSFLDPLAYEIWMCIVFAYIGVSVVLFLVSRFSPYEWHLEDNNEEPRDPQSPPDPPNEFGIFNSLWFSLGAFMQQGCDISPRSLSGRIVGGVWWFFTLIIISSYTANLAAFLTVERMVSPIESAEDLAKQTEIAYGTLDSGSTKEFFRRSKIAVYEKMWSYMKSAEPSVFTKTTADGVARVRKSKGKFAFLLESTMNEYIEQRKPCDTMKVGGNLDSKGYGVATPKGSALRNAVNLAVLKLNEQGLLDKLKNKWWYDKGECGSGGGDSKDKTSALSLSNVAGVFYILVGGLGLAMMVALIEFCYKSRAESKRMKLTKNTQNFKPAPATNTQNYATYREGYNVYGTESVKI
Sequence of Glutamate receptor 4 (Homo sapiens, UniProt P48058) (P48058 whole entry): as the sequence (P48058 whole entry) above
Sequence of Glutamate receptor 1 (P42261 whole entry): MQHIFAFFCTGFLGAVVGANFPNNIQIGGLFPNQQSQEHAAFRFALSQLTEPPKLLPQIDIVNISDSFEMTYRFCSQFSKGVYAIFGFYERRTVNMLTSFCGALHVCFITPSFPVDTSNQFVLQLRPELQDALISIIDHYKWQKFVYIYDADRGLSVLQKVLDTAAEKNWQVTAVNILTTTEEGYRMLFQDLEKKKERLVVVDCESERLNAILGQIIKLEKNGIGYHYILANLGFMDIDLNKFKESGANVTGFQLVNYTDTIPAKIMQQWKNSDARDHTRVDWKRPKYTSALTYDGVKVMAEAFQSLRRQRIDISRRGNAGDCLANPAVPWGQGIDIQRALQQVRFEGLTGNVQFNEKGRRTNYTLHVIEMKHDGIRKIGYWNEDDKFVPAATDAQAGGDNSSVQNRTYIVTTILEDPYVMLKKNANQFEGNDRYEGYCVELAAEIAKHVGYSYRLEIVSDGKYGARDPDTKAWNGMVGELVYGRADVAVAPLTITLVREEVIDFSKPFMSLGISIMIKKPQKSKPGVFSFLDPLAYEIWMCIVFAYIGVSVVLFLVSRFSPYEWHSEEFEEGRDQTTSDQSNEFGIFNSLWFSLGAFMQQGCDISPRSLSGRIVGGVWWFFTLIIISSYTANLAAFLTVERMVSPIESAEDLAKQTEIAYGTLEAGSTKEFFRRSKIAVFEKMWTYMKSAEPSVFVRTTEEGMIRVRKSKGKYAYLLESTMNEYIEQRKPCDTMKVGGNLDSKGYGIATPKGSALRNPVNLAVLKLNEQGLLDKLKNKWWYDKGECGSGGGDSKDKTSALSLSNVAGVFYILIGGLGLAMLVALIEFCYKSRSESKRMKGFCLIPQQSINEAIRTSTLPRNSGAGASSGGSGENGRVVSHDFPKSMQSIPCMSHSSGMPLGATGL
Sequence of Glutamate receptor 4 (Rattus norvegicus, UniProt P19493) (P19493 whole entry): as the sequence (P19493 whole entry) above
Sequence of Glutamate receptor 3 (P42263 whole entry): as the sequence (P42263 whole entry) above

CC(C)S(=O)(=O)NC[C@H](C)c1ccc(-c2ccc(CCNS(C)(=O)=O)cc2)cc1 [MIBAMPATOR]
EC50 (Glutamate receptor 4 [1]): 0.15 µM

O=C(c1ccc2c(c1)OCCO2)N1CCCCC1
EC50 [2]: 1600 µM

O=C1c2cc3c(cc2OC2CCCN12)OCCO3 (stereo unspecified)
EC50 [2]: 43.7 µM
EC50 (Glutamate receptor 1): 21 µM

NS(=O)(=O)c1cc2c(cc1Cl)NC(C1CC3C=CC1C3)NS2(=O)=O (stereo unspecified) [CYCLOTHIAZIDE]
EC2 [3]: 1.6 µM

CC(C)S(=O)(=O)N[C@H]1Cc2ccc(-n3nc(C(F)(F)F)c4c3CCCC4)cc2C1
EC50 (Glutamate receptor 2 [4]): < 300 µM

O=C(Cn1nc(C(F)(F)F)c2c1CCCC2)Nc1sc2c(c1C(=O)NCCc1ccccn1)CCCC2
EC50 (Glutamate receptor 1): < 10 µM

CC(CNS(=O)(=O)C(C)C)c1ccc(-c2ccc(C#N)cc2)cc1 (stereo unspecified)
EC50 [5]: 0.29 µM
EC50 (Glutamate receptor 2 [6]): 0.15 µM
EC50 (Glutamate receptor 1): 5.65 µM
EC50 (Glutamate receptor 2 [7]): 1.44 µM
EC50 (Glutamate receptor 3): 1.66 µM

CC(C)S(=O)(=O)N[C@@H]1CN(C)C[C@@H]1c1ccc(-c2ccc(N(C)S(C)(=O)=O)cc2)cc1
EC50 (Glutamate receptor 2 [4]): 1.6 µM

COc1ccc(C(=O)N2CCCC2=O)cc1
EC50 [8]: > 1000 µM
EC50 [9]: > 100 µM

CC(C)S(=O)(=O)N[C@@H]1CCC[C@@H]1c1ccc(I)cc1
EC50 (Glutamate receptor 4 [1]): 0.23 µM

O=C(c1ccc2nonc2c1)N1CCCCC1 [FARAMPATOR]
EC50 [8]: 14 µM

COCc1cccc(C(=O)N2CCCCC2)c1
Activity (Rattus norvegicus): 25%

CC(=O)c1s/c(=N\c2ccc(OC(F)(F)F)cc2)n(CCO)c1C
EC50 (Glutamate receptor 2 [6]): < 200 µM
Activity [10]: 15%

C[C@H](CNS(C)(=O)=O)c1ccc(-c2ccc([C@@H](C)CNS(C)(=O)=O)cc2)cc1
EC50 (Glutamate receptor 4 [11]): 0.87 µM

CN(C)C(=O)c1ccc(-n2nc(C(F)(F)F)c3c2CCOC3)cc1
Activity [10]: 14%
EC50 (Glutamate receptor 2 [4]): < 300 µM

C[C@@H](CNS(C)(=O)=O)c1ccccc1
EC50 (Glutamate receptor 2 [7]): 1980 µM

O=C1CCCN1[C@H]1Cc2ccc(-n3cc(C4CC4)c(C(F)(F)F)n3)cc2C1
EC50 (Glutamate receptor 2 [4]): < 300 µM

O=S1(=O)N[C@H]2CCCN2c2ccc(Cl)cc21
EC2 [3]: 60 µM

O=C1CCCN1Cc1ccc(-n2nc(C(F)(F)F)c3c2COCC3)cc1F
EC50 (Glutamate receptor 2 [4]): < 300 µM

O=C1c2cc3nnn(CCc4cccc(F)c4)c(=O)c3cc2OCN1C1CC1
EC2 [3]: 0.1 µM

CC(C)S(=O)(=O)NCCCCCCCNS(=O)(=O)C(C)C
EC50 (Glutamate receptor 1): 2.88 µM

O=C(c1ccc2nccnc2c1)N1CCCCC1 [CX516]
EC50 [2]: 95 µM
EC50 (Glutamate receptor 4 [1]): 156 µM and > 1000 µM
Activity (Rattus norvegicus): 68%

CC(C)S(=O)(=O)NCCCCCCCCCNS(=O)(=O)C(C)C
EC50 (Glutamate receptor 1): 0.66 µM

CC(CNS(=O)(=O)C(C)C)c1ccc(Br)cc1 (stereo unspecified)
inhibition (Glutamate receptor 2 [12]): 26%

CC(C)S(=O)(=O)N[C@@H]1CCC[C@@H]1c1ccc(Br)cc1
EC50 (Glutamate receptor 2 [6]): 0.52 µM
EC50 (Glutamate receptor 4 [1]): 0.52 µM

CC(CNS(C)(=O)=O)c1ccc(C(C)(C)C)cc1 (stereo unspecified)
EC50 (Glutamate receptor 4 [1]): 1.2 µM

CC1(C)CC(=O)C2=C(C1)OC(N)=C(C#N)C2c1ccc2ccccc2c1 (stereo unspecified)
EC50 [8]: 1.6 µM
EC2 [3]: 1.6 µM

CCN1CC[C@@H](c2ccc(-c3ccccc3)cc2)[C@H](NS(=O)(=O)C(C)C)C1
EC50 [5]: < 10 µM

CC(C)S(=O)(=O)NCCCCCCCCNS(=O)(=O)C(C)C
EC50 (Glutamate receptor 1): 0.91 µM
